Measured values: patent US5494804A, “Differential determination process of α-amylase isoenzyme activities” (Kikkoman Corporation, priority 1993, dated 1996)
Values belong to the compound of their own block, whether it stands above or below them.

How the values were obtained:
human P-type α-amylase [1] = target: T1, human P-type α-amylase (Homo sapiens, UniProt P04746); assay: Inhibition of human P-type α-amylase by an inhibitor (variable absorbance at 400 nm, chromogenic substrate, coupled enzymes); assay type: biochemical
T1 construct: purchased International Reagents Corp., Japan CARIBZYME AMY
T1 sequence (P04746 16-511): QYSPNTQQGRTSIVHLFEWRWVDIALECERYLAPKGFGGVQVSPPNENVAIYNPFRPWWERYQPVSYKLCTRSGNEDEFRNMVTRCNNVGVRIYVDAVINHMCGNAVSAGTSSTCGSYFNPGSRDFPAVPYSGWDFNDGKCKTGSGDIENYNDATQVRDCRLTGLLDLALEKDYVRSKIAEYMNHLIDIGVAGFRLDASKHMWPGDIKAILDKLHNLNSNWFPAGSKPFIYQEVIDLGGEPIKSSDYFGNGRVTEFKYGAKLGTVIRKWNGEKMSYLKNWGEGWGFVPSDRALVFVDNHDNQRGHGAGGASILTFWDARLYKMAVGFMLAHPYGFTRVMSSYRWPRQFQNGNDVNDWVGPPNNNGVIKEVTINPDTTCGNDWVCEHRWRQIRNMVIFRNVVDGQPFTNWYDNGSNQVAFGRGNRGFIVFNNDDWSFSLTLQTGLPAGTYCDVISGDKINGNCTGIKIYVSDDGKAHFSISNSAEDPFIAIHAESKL
Protocol: (§1) (a) Preparation of a mixed solution of the substrate (N3G5-CNP) and the inhibitor DOG3
(§2) N3G5-CNP and DOG3 obtained in Informative Example 2 were dissolved in a 50 mM phosphate buffer (pH 7.0) containing 40 mM NaCl and 2 mM MgCl2 so that the N3G5-CNP has a concentration of 3.25 mM (final concentration of 2.0 mM) and DOG3 has seven concentrations of 0.05, 0.11, 0.54, 1.09, 2.16, 3.25, 5.41 mM (final concentrations of 0.03, 0.07, 0.33, 0.67, 1.33, 2.00 and 3.33 mM, respectively).
(§3) The commercially available human P-type α-amylase and human S-type α-amylase were dissolved in distilled water so that they have a concentration of about 150 IU/liter.
(§4) It was prepared in the same manner as described in (b) in the section (1).
(§5) After 250 μl of the α-amylase solution was admixed with 1.0 ml of the coupled enzyme solution and warmed to 37° C. for 1 minute, 2.0 ml of each of the mixtures (having 7 concentration) of the substrate (N3G5-CNP) and the inhibitor DOG3 was added, stirred and warmed to 37° C. for 2.5 minutes, and the variable absorbance in each sample at 400 nm was measured for 2 minutes.
(§6) The activities of human P-type α-amylase and human S-type α-amylase containing 0 mM of DOG3 (without DOG3) were regarded as 100% and the relative activities of human P-type α-amylase and human S-type α-amylase in different concentrations of DOG3 were obtained from each determined value as mentioned above. In this connection, a open circle means P-type α-amylase and a closed circle means S-type α-amylase. […]
(§7) On the other hand, procedures were carried out in the same manner as described above except that 1.0 ml of the coupled enzyme solution alone was used on behalf of the mixed solution in (c) to obtain the value of T with this method.
(§8) The values of kp, ks, a and b in the wheat-germ inhibitor method were 1.1×10^-3, 1.1×10^-3, 0,262 and 0.726 as a result of the measurement. These values as well as those of T and W obtained in this method were substituted for the equations (3) and (4) to obtain the values of P and S (IU/liter). […]

human S-type α-amylase [2] = target: T2, human S-type α-amylase (Homo sapiens, UniProt P0DUB6); assay: Inhibition of human S-type α-amylase by an inhibitor (variable absorbance at 400 nm, chromogenic substrate, coupled enzymes); assay type: biochemical
T2 construct: purchased International Reagents Corp., Japan CARIBZYME AMY
T2 sequence (P0DUB6 16-511): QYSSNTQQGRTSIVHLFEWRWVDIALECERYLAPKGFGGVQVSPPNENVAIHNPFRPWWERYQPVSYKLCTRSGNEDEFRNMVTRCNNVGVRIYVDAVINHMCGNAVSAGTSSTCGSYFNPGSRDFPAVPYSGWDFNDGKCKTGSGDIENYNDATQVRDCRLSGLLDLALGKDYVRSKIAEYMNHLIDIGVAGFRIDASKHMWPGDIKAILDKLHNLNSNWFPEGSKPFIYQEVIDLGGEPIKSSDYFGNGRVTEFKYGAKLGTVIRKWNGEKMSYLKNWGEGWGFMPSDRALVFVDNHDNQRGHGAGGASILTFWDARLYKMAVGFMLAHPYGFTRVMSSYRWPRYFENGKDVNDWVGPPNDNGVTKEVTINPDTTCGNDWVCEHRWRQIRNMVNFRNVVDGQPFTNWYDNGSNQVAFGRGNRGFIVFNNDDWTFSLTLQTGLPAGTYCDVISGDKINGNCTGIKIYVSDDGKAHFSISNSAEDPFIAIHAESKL
Protocol: as §1, §2, §3, §4, §5, §6, §7, §8

human S-type α-amylase [3] = target: T2, human S-type α-amylase; assay: Km and reaction rate constant ks of the substrate for measuring α-amylase activity, S-type; assay type: biochemical
Protocol: (§9) In a 50 mM phosphate buffer (pH 7.0) containing 40 mM NaCl and 2 mM MgCl2 was dissolved N3G5-CNP obtained in Informative Example 1 to prepare substrate solutions for measuring α-amylase activity in a concentration of 0.16, 0.32, 0.48, 0.64, 0.80 and 0.96 mM.
(§10) A commercially available glucoamylase derived from Rhizopus sp. and β-glucosidase derived from almond were mixed and dissolved in a 50 mM phosphate buffer (pH 7.0) containing 40 mM NaCl and 2 mM MgCl2 to the concentration of the glucoamylase and β-glucosidase being 163 units/ml and 16.3 units/ml, respectively. In this connection, these commercially available glucoamylase and β-glucosidase used were manufactured by Toyobo Co., Ltd.
(§11) Each of commercially available human P-type α-amylase and human S-type α-amylase was dissolved in distilled water to ensure that the concentration of each amylase was about 150 IU/liter.
The commercially available human α-amylases used were CARIBZYME AMY manufactured by International Reagents Corp., Japan.
The molecular extinction coefficient (ε) of 2-chloro-4-nitrophenol is defined 16,100 and for α-amylase activity the amount of enzyme which decomposes 1 μmol of G5-CNP at 37° C. for a minute is defined as 1 International Unit (IU) (and so forth).
(§12) As for the human P-type α-amylase solution and human S-type α-amylase solution, 1.0 ml of a coupled enzyme solution was added to and stirred with 250 μl of the α-amylase solution, warmed to 37° C. for 1 minute, and 2.0 ml of each concentration of the N3G5-CNP solution was added and stirred, warmed to 37° C. for 2.5 minutes to measure the variable absorbances at 400 nm for 2 minutes. […]
For six solutions of each of the human P-type α-amylase and the human S-type α-amylase, 1.0 ml of the coupled enzyme solution was added to and stirred with 250 μl of the α-amylase solution and warmed to 37° C. for 1 minute, respectively. 2.0 ml of N3G5-CNP solution was added and stirred, and the mixture was warmed to 37° C. for 2.5 minutes to measure the variable absorbances at 400 nm for 2 minutes. […]

α-amylase = assay: Km value of G5-CNP (isoenzyme not stated); assay type: biochemical, human; details: α-glucosidase instead of glucoamylase as coupled enzyme
Protocol: As for the human P-type α-amylase solution and human S-type α-amylase solution, 1.0 ml of a coupled enzyme solution was added to and stirred with 250 μl of the α-amylase solution, warmed to 37° C. for 1 minute, and 2.0 ml of each concentration of the N3G5-CNP solution was added and stirred, warmed to 37° C. for 2.5 minutes to measure the variable absorbances at 400 nm for 2 minutes. At the same time, a blank test was carried out with 250 μl of distilled water instead of the α-amylase solution. The measurements thus obtained were plotted by the Lineweaver-Burk method to calculate the Km value by the method of least squares.
The Km value and the reaction rate constants (kp and ks) of G5-CNP and the inhibition constants a and b of DOG3 were measured in the same manner as in Example 1 except that a commercially available G5-CNP [manufactured by Daiichi Pure Chemicals Co., Ltd.] on behalf of N3G5-CNP as the substrate for measuring α-amylase was used and 406 units/liter of α-glucosidase [manufactured by Toyobo Co., Ltd.] was used on behalf of glucoamylase as a coupled enzyme.

human P-type α-amylase [4] = target: T1, human P-type α-amylase; assay: Km and reaction rate constant kp of the substrate for measuring α-amylase activity, P-type; assay type: biochemical
Protocol: as §9, §10, §11
The commercially available human α-amylases used were CARIBZYME AMY manufactured by International Reagents Corp., Japan. […]
as §12

[5] = α-glucosidase instead of glucoamylase as coupled enzyme
[6] = substrate final concentration 2.0 mM, 37° C., inclination of absorbance versus activity line, glucoamylase and β-glucosidase

activity at 330 µM (human P-type α-amylase [1]; DOG3 0.33 mM final, substrate N3G5-CNP 2.0 mM final, 37° C., pH 7.0, read-out: relative activity of human P-type α-amylase (without DOG3 = 100%)): 13.1% | difference of the relative activities of P-type and S-type α-amylases (maximum) (human P-type α-amylase [1]; DOG3 0.33 mM, substrate N3G5-CNP, S-type minus P-type, as fraction): 0.548 | inhibition at 500 µM (human P-type α-amylase [1]; DOG3 0.50 mM, substrate G5-CNP, α-glucosidase and β-glucosidase as coupled enzymes, read-out: inhibition constant a (to P-type α-amylase)): 61.7% | inhibition at 330 µM (human P-type α-amylase [1]; pH 7, DOG3 0.33 mM, substrate N3G5-CNP 2.0 mM, read-out: inhibition constant a (to P-type α-amylase) = 1 - relative activity): 86.9% | activity at 330 µM (human S-type α-amylase [2]; DOG3 0.33 mM final, substrate N3G5-CNP 2.0 mM final, 37° C., pH 7.0, read-out: relative activity of human S-type α-amylase (without DOG3 = 100%)): 67.9% | inhibition at 500 µM (human S-type α-amylase [2]; DOG3 0.50 mM, substrate G5-CNP, α-glucosidase and β-glucosidase as coupled enzymes, read-out: inhibition constant b (to S-type α-amylase)): 14.1% | inhibition at 330 µM (human S-type α-amylase [2]; pH 7, DOG3 0.33 mM, substrate N3G5-CNP 2.0 mM, read-out: inhibition constant b (to S-type α-amylase) = 1 - relative activity): 32.1%
SMILES: C[C@H]1O[C@H](O[C@H]2[C@H](O)[C@@H](O)[C@@H](O[C@H]3[C@H](O)[C@@H](O)C(O)O[C@@H]3CO)O[C@@H]2CO)[C@H](O)[C@@H](O)[C@@H]1O (stereo partly drawn) [DOG3, O-6-deoxy-α-D-glucopyranosyl-(1→4)-O-α-D-glucopyranosyl-(1→4)-D-glucose]

SMILES: O=[N+]([O-])c1ccc(O[C@@H]2O[C@H](CO)[C@@H](O[C@H]3O[C@H](CO)[C@@H](O[C@H]4O[C@H](CO)[C@@H](O[C@H]5O[C@H](CO)[C@@H](O[C@H]6O[C@H](CO)[C@@H](O)[C@H](O)[C@H]6O)[C@H](O)[C@H]5O)[C@H](O)[C@H]4O)[C@H](O)[C@H]3O)[C@H](O)[C@H]2O)c(Cl)c1 [G5-CNP, 2-chloro-4-nitrophenyl β-D-maltopentaoside, reference compound]
reaction rate constant ks (human S-type α-amylase [3]; [5]): 1.2×10^-3 | Km (α-amylase): 450 µM | reaction rate constant kp (human P-type α-amylase [4]; [5]): 1.2×10^-3

Km (human S-type α-amylase [3]; Lineweaver-Burk, 37° C., pH 7.0, glucoamylase and β-glucosidase as coupled enzymes): 270 µM | reaction rate constant ks (human S-type α-amylase [3]; [6]): 1.1×10^-3 | reaction rate constant kp (human P-type α-amylase [4]; [6]): 1.1×10^-3
SMILES: [N-]=[N+]=NC[C@H]1O[C@H](O[C@H]2[C@H](O)[C@@H](O)[C@@H](O[C@H]3[C@H](O)[C@@H](O)[C@@H](O[C@H]4[C@H](O)[C@@H](O)[C@@H](O[C@H]5[C@H](O)[C@@H](O)[C@H](Oc6ccc([N+](=O)[O-])cc6Cl)O[C@@H]5CO)O[C@@H]4CO)O[C@@H]3CO)O[C@@H]2CO)[C@H](O)[C@@H](O)[C@@H]1O [N3G5-CNP, 2-chloro-4-nitro-phenyl 6^5-azido-6^5-deoxy-β-D-maltopentaoside]
